Holding throughout (assay): DTP human tumour cell line panel, 48 h
Test [1] relates to NCI-H522 lung.
Test [2] has as its system LOX IMVI melanoma.
The test system of test [3] is SR leukemia.
Test [4] deals with SF-539 CNS.
In test [5] the test system is HCT-116 colon.
Test [6] deals with CCRF-CEM leukemia.
The subject of test [7] is SK-MEL-28 melanoma.
Test [8] relates to PC-3 prostate.
The test system of test [9] is NCI-H460 lung.
Test [10] deals with OVCAR-8 ovarian.

Several values for one entry are separate records, joined by “and”; a condition that tells them apart may be missing. Equal values may be shown once.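 Interpolation was linear, between the two tested concentrations surrounding the appropriate level; five concentrations were tested over 48 hours in 96-well plates. GI50 marks 50% less growth. TGI: total growth inhibition.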

As a reminder, the GI50 is the concentration giving 50% growth inhibition. In general, TGI refers to the concentration at which net growth stops. A high value points to lower sensitivity of the cells. Take `COc1ccc(N(C)c2nc(N)nc3sc4c(c23)CCCC4)cc1`: the GI50 in test [1], in test [2], in test [3], in test [4], in test [5] and in test [6] was < 0.01 µM in each case. For the same molecule, the GI50 in [7] is 4.3 µM; in test [8], < 0.01 µM; in [9], < 0.01 µM; in [10], < 0.0171 µM. Besides, the TGI in test [2] is 15.3 µM; in test [3] it was 11 µM; in test [5], 11.3 µM; in test [6], 55.5 µM; in test [7], 23.4 µM; in test [8], 15.6 µM. In addition, the figures for the concentration for total growth inhibition (TGI) in test [9] and in [10] were 4.19 µM and 14.9 µM, respectively.

Consider `COc1ccc(N=N/C(C(=O)C(F)(F)F)=C(\O)c2ccc(Cl)cc2)cc1`, for which the GI50 in test [1] was 4.93 µM; in [2], 3.29 µM; in [3], 4.26 µM; in test [4] it was 6.33 µM; in test [5] it was 6.64 µM; in [6] it was 4.61 µM. The GI50 in test [7] is 7.22 µM; in test [8], 10.4 µM; in test [9], 3.77 µM; in test [10], 10.7 µM. The concentration for total growth inhibition (TGI) was 32.1 µM in [1]; 21.5 µM in test [2]; 24.7 µM in test [3]; 39.8 µM in test [4]; 26.2 µM in [5]; > 100 µM in [6]. Besides, the total growth inhibition concentration (TGI) in [7] was > 100 µM; in [8], > 100 µM; in test [9], 27.7 µM; in test [10], 70.3 µM.

`CC[C@H](C)[C@H](NC(=O)[C@H]1CCCCN1C)C(=O)N(C)[C@H](C[C@@H](OC(C)=O)c1nc(C(=O)N[C@@H](Cc2ccccc2)C[C@H](C)C(=O)O)cs1)C(C)C`: the concentration for 50% growth inhibition (GI50) in test [1] is 0.000347 µM and < 0.00165 µM; in [2] it was 0.000609 µM and 0.00165 µM; in [3], 0.000305 µM and 0.00165 µM; in test [4], 0.000576 µM and < 0.00165 µM; in [5], 0.000404 µM and 0.00165 µM; in test [6], 0.000392 µM and 0.00165 µM. Further, the GI50 was 8.63 µM in test [7]; 0.000339 µM and 0.00165 µM in test [8]; 0.000369 µM and 0.00165 µM in [9]; 0.00297 µM and 0.00165 µM in [10]. Besides, the concentration for total growth inhibition (TGI) is 0.0133 µM and < 0.00165 µM in [1]; > 16.5 µM in test [2]; > 16.5 µM in [3]; 0.00596 µM and < 0.00165 µM in test [4]; 0.017 µM in [5]; 2.49 µM in test [6]. For the same molecule, the concentration for total growth inhibition (TGI) in test [7], in [8], in [9] and in [10] was > 16.5 µM in each case.

With `CO[C@H]1C[C@@H]2CC[C@@H](C)[C@@](O)(O2)C(=O)C(=O)N2CCCC[C@H]2C(=O)O[C@H]([C@H](C)C[C@@H]2CC[C@@H](OCCO)[C@H](OC)C2)CC(=O)[C@H](C)C=C(C)[C@@H](O)[C@@H](OC)C(=O)[C@H](C)C[C@H](C)/C=C/C=C/C=C1C`, the TGI in test [1] was 17.7 µM; in test [2], 17.8 µM; in test [3], 10.2 µM; in test [4], 15.3 µM; in test [5] it was 18.9 µM; in test [6], > 43.1 µM. The TGI in [7] was determined as 24.5 µM; in test [8], 16.7 µM; in test [9], 19.4 µM; in test [10], 29.5 µM. For the same molecule, the 50% growth inhibitory concentration (GI50) in test [2] was < 0.01 µM; in test [3], < 0.01 µM; in test [4], < 0.01 µM; in [5] it was 3.43 µM; in test [7], 11.3 µM; in [8] it was < 0.01 µM.

For `C=CCOCn1cc(C)c(=O)[nH]c1=O`, the concentration for total growth inhibition (TGI) was 50.2 µM in [1]; > 100 µM in test [2]; > 100 µM in test [3]; > 100 µM in test [4]; > 100 µM in test [5]; > 100 µM in [6]. Besides, the TGI in [7], in test [8], in test [9] and in test [10] was > 100 µM in each case.

On to `CCN(CC)Cc1cc2[nH]c3c4ccc(Cl)cc4ncc3c2cc1OC`, for which the GI50 in test [1] was 7.16 µM and 2.2 µM; in test [2], 1.73 µM and 1.7 µM; in test [3] it was 2.36 µM; in test [4], 1.61 µM and 1.78 µM; in test [5], 1.85 µM and 1.65 µM; in test [6] it was 2.52 µM and 1.8 µM. For the same molecule, the GI50 in test [7] is 1.95 µM and 1.88 µM; in test [8] it was 3.18 µM and 1.99 µM; in test [9], 1.99 µM and 2.19 µM; in test [10] it was 3.63 µM and 2.5 µM. Besides, the TGI in test [1] is 17.7 µM and 4.97 µM; in test [2], 3.43 µM and 3.23 µM; in test [4], 2.97 µM and 3.25 µM; in test [5], 5.92 µM and 3.15 µM; in [6], > 19.7 µM and 4.57 µM; in test [7] it was 3.53 µM and 3.42 µM. For the same molecule, the TGI in test [8] was 16 µM and 6.8 µM; in test [9], 4.55 µM and 5.11 µM; in test [10] it was 12.2 µM and 7.41 µM.

Turning to `COc1nnc2ccc(N3CCC(c4ccc(OCCN5CCN(C)C(=O)[C@H]5C)cc4)CC3)nn12`, the GI50 in [1] is 0.0159 µM; in test [2], 0.038 µM; in test [3], 0.0198 µM; in [4] it was 0.116 µM; in test [5] it was 0.0723 µM; in test [6] it was 0.323 µM. In addition, the GI50 in test [7] is 0.522 µM; in [8], 0.315 µM; in test [9], 0.373 µM; in test [10] it was 0.544 µM. The concentration for total growth inhibition (TGI) was 0.878 µM in test [1]; 4.56 µM in test [2]; > 100 µM in test [3]; > 100 µM in [4]; > 100 µM in test [5]; > 100 µM in [6]. Further, the concentration for total growth inhibition (TGI) in test [7], in [8], in test [9] and in test [10] was > 100 µM each time.

Take `C#CCOc1ccc2ncnc(Nc3ccc(NC(=O)C=C)cc3)c2c1`: the GI50 was 11.8 µM in test [1]; 3.92 µM in test [2]; 3.47 µM in [3]; 9.76 µM in [4]; 10.9 µM in test [5]; 4.26 µM in test [6]. The GI50 is 23.6 µM in [7], 70.4 µM in test [8], > 100 µM in test [9] and 45.8 µM in [10]. Also, the total growth inhibition concentration (TGI) in [1] stood at 39.7 µM; in test [2], 17.5 µM; in [3] it was 57.4 µM; in test [4] it was 39.6 µM; in test [5], 35.9 µM; in test [6], 40.8 µM. Also, the concentration for total growth inhibition (TGI) in [7], in test [8], in [9] and in test [10] was > 100 µM each time.

Source of the values: PubChem BioAssay (NCI).
